Data: patent US5298492A, “Diamino acid derivatives as antihypertensives” (Schering Corporation, priority 1992, dated 1994)
pIC50: −log10 of the molar value.

Key:
[1] = molecular target: ACE (angiotensin converting enzyme) (Homo sapiens, UniProt P12821); assay: ACE inhibition IC50; type: biochemical
[2] = molecular target: NEP (neutral endopeptidase) (Homo sapiens, UniProt P08473); assay: NEP inhibition IC50; type: biochemical
Chain of NEP (neutral endopeptidase) (P08473 whole entry, species assumed): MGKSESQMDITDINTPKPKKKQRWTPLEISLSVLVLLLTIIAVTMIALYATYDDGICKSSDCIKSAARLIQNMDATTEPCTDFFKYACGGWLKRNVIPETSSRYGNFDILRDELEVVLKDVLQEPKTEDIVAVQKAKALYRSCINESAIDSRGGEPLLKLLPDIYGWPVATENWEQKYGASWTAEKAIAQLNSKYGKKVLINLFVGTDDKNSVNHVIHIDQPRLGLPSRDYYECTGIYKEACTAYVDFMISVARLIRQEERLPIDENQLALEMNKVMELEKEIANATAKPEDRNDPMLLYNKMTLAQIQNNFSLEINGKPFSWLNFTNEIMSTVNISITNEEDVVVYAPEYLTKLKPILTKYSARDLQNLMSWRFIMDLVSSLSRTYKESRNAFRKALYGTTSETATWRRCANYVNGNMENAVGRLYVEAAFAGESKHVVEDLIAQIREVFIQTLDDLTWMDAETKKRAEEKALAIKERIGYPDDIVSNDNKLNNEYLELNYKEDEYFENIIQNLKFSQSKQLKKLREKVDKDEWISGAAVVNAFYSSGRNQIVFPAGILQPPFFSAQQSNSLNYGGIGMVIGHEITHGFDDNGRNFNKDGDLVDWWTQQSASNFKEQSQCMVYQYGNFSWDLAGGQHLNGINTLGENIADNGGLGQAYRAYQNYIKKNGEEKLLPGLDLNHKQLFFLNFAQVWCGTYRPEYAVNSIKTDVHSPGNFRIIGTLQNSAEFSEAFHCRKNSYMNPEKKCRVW

Chain of ACE (angiotensin converting enzyme) (P12821 30-1306, species assumed): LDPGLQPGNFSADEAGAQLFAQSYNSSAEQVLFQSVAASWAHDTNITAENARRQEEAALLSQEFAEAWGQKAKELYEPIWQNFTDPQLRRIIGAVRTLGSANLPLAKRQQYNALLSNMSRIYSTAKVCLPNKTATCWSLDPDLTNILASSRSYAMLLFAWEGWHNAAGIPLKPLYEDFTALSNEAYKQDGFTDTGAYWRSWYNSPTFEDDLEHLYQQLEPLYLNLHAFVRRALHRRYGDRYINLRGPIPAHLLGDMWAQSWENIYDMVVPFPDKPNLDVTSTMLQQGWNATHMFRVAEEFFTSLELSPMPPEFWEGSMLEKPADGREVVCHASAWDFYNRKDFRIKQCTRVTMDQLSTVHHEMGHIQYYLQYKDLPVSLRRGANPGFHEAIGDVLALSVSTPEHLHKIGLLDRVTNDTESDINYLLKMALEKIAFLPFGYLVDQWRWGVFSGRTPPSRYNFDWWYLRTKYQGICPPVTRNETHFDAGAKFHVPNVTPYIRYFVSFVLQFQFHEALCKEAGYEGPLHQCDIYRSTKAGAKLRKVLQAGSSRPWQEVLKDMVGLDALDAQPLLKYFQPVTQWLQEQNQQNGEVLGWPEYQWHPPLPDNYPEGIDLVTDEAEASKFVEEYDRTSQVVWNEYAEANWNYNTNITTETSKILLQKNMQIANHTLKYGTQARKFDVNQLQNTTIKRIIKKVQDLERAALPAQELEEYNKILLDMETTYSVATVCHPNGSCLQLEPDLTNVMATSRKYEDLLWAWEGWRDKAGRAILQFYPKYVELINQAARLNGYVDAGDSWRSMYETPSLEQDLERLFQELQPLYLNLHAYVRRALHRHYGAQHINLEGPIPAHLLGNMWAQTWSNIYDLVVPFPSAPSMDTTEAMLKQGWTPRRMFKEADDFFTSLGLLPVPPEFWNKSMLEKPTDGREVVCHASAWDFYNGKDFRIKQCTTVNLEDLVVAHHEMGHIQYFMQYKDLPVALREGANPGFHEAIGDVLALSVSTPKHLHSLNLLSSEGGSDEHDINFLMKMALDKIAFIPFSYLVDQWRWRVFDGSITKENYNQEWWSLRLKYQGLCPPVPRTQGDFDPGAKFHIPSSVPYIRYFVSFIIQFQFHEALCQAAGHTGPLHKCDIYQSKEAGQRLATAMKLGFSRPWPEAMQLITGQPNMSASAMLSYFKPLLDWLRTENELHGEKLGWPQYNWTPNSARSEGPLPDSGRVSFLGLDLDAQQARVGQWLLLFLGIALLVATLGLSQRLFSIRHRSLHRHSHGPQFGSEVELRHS

SMILES | pIC50 [1] | pIC50 [2]
CCOC(=O)[C@H](Cc1ccc(O)cc1)NC(=O)[C@H](Cc1ccccc1)N[C@@H](CNC(=O)[C@H](CCCCNC(=O)OCc1ccccc1)NS(C)(=O)=O)C(=O)O | 7.30 | 7.42
CCN=C(NCC)NCCCC[C@H](NS(C)(=O)=O)C(=O)NC[C@H](N[C@@H](Cc1ccccc1)C(=O)N[C@@H](Cc1ccc(O)cc1)C(=O)O)C(=O)O | 8.10 | 7.02
CS(=O)(=O)N[C@@H](CCCCN)C(=O)NC[C@H](NC(C(=O)N[C@@H](Cc1ccc(O)cc1)C(=O)O)C1CC1)C(=O)O (single isomer, unassigned) [listing 1 of 2 here] | 7.82 | 7.40
CCOC(=O)[C@H](CNC(=O)[C@H](CCCCN)NS(C)(=O)=O)N[C@@H](Cc1ccccc1)C(=O)N[C@@H](Cc1ccc(O)cc1)C(=O)O | < 6.00 | 6.52
CCC[C@H](N[C@@H](CNC(=O)[C@H](CCCCNC(=O)OCc1ccccc1)NS(C)(=O)=O)C(=O)O)C(=O)N[C@@H](Cc1ccc(O)cc1)C(=O)OC | 6.52 | 7.11
CS(=O)(=O)N[C@@H](CCCCNC(=O)OCc1ccccc1)C(=O)NC[C@H](N[C@H](C(=O)N[C@@H](Cc1ccc(O)cc1)C(=O)O)C1CCCCC1)C(=O)O | 6.60 | < 6.52
CS(=O)(=O)N[C@@H](CCCCN)C(=O)NC[C@H](NC(C(=O)N[C@@H](Cc1ccc(O)cc1)C(=O)O)C1CC1)C(=O)O (single isomer, unassigned) [listing 2 of 2 here] | 6.52 | < 6.52
CCC[C@H](N[C@@H](CNC(=O)[C@H](CCCCN)NS(C)(=O)=O)C(=O)O)C(=O)N[C@@H](Cc1ccc(O)cc1)C(=O)OC | – | 6.57
CS(=O)(=O)N[C@@H](CCCCN)C(=O)NC[C@H](NC1(C(=O)N[C@@H](Cc2ccc(O)cc2)C(=O)O)CCCCC1)C(=O)O | – | 6.72
CCC[C@H](N[C@@H](CNC(=O)[C@H](CCCCNC(=O)OCc1ccccc1)NS(C)(=O)=O)C(=O)O)C(=O)N[C@@H](Cc1ccc(O)cc1)C(=O)O | 7.82 | 8.70
CCOC(=O)[C@H](CNC(=O)[C@H](CCCCNC(=O)OCc1ccccc1)NS(C)(=O)=O)N[C@@H](Cc1ccccc1)C(=O)N[C@@H](Cc1ccc(O)cc1)C(=O)O | < 6.00 | < 6.52
COC(=O)[C@H](CNC(=O)[C@H](CCCCN)NS(C)(=O)=O)N[C@H](C(=O)N[C@@H](Cc1ccc(O)cc1)C(=O)O)C(C)C | < 6.00 | < 6.52

Other lines, results leading:

pIC50 [1] | pIC50 [2] | SMILES
6.92 | < 6.52 | CS(=O)(=O)N[C@@H](CCCCN)C(=O)NC[C@H](N[C@H](C(=O)N[C@@H](Cc1ccc(O)cc1)C(=O)O)C1CCCCC1)C(=O)O
6.82 | < 6.52 | CS(=O)(=O)N[C@@H](CCCCN)C(=O)NC[C@H](NC1(C(=O)N[C@@H](Cc2ccc(O)cc2)C(=O)O)CC1)C(=O)O
7.52 | 8.70 | CC(C)[C@H](N[C@@H](CNC(=O)[C@H](CCCCNC(=O)OCc1ccccc1)NS(C)(=O)=O)C(=O)O)C(=O)N[C@@H](Cc1ccc(O)cc1)C(=O)O
– | 7.38 | CS(=O)(=O)N[C@@H](CCCCN)C(=O)NC[C@H](NC1(C(=O)N[C@@H](Cc2ccc(O)cc2)C(=O)O)CCC1)C(=O)O
6.40 | 7.15 | CCC[C@H](N[C@@H](CNC(=O)[C@H](CCCCNC(=O)OCc1ccccc1)NS(C)(=O)=O)C(=O)O)C(=O)N[C@@H](Cc1cccc(NS(C)(=O)=O)c1)C(=O)OCC
7.52 | 8.22 | CCC[C@H](N[C@@H](CNC(=O)[C@H](CCCCN)NS(C)(=O)=O)C(=O)O)C(=O)N[C@@H](Cc1ccc(O)cc1)C(=O)O
7.82 | 7.60 | CS(=O)(=O)Nc1cccc(C[C@H](NC(=O)[C@H](Cc2ccccc2)N[C@@H](CNC(=O)[C@H](CCCCN)NS(C)(=O)=O)C(=O)O)C(=O)O)c1
7.19 | 7.52 | O=C(CCCCCNC(=O)OCc1ccccc1)NC[C@H](N[C@@H](Cc1ccccc1)C(=O)N[C@@H](Cc1ccc(O)cc1)C(=O)O)C(=O)O [drawing 100: R1=H; R5=OH; R6=OH; Z=CbzNH]
8.05 | 7.74 | CS(=O)(=O)N[C@@H](CCCCNC(=O)OCc1ccccc1)C(=O)NC[C@H](N[C@@H](Cc1ccccc1)C(=O)N[C@@H](Cc1ccc(O)cc1)C(=O)O)C(=O)O
6.76 | 7.17 | CS(=O)(=O)N[C@@H](CCCCN)C(=O)NC[C@H](N[C@@H](Cc1ccccc1)C(=O)N[C@@H](Cc1ccc(O)cc1)C(=O)OCCc1ccccc1)C(=O)O
6.19 | 7.40 | CCOC(=O)[C@H](Cc1ccc(O)cc1)NC(=O)[C@H](Cc1ccccc1)N[C@@H](CNC(=O)[C@H](CCCCN)NS(C)(=O)=O)C(=O)O
7.40 | 6.70 | CCC[C@H](N[C@@H](CNC(=O)[C@H](CCCCN)NS(C)(=O)=O)C(=O)O)C(=O)N[C@@H](Cc1cccc(NS(C)(=O)=O)c1)C(=O)O
7.22 | 7.80 | NCCCCCC(=O)NC[C@H](N[C@@H](Cc1ccccc1)C(=O)N[C@@H](Cc1ccc(O)cc1)C(=O)O)C(=O)O [drawing 100: R1=H; R5=OH; R6=OH; Z=NH2]
7.35 | 7.46 | CS(=O)(=O)N[C@@H](CCCCN)C(=O)NC[C@H](NC1(C(=O)N[C@@H](Cc2ccc(O)cc2)C(=O)O)CCCC1)C(=O)O
7.30 | 8.15 | CC(C)[C@H](N[C@@H](CNC(=O)[C@H](CCCCN)NS(C)(=O)=O)C(=O)O)C(=O)N[C@@H](Cc1ccc(O)cc1)C(=O)O
7.30 | 7.46 | CS(=O)(=O)N[C@@H](CCCCN)C(=O)NC[C@H](N[C@@H](Cc1ccccc1)C(=O)N[C@@H](Cc1ccc(O)cc1)C(=O)O)C(=O)O [drawing 100: R1=CH3SO2NH; R5=OH; R6=OH; Z=NH2]
< 6.00 | 6.62 | COC(=O)[C@H](CNC(=O)[C@H](CCCCNC(=O)OCc1ccccc1)NS(C)(=O)=O)N[C@H](C(=O)N[C@@H](Cc1ccc(O)cc1)C(=O)O)C(C)C
